Experimental data reported in patent US20230137927A1, “INTERFERON TAU AS ANTIVIRAL THERAPY” (priority 2020, published 2023).
Where two headings read alike, the source gives them in different places.

What was measured:
[1] = tested on: hCoV-229E; assay: hCoV-229E CPE assay; assay type: cell-based; details: Human coronavirus 229E
[2] = tested on: SARS CoV-2 (USA_WA1/2020); assay: SARS-CoV-2 CPE assay in Vero E6 cells; assay type: cell-based; details: Severe acute respiratory syndrome coronavirus 2, Vero C1008, reference compounds in the same assay
[3] = tested on: hCoV-OC43; assay: HCoV OC43 CPE assay in Huh7 cells; assay type: cell-based
[4] = Cytotoxicity in parallel with OC43 CPE assay, without virus; details: human
[5] = tested on: Huh7 cells; assay: as above; details: Huh7 cells; no virus; reference compounds
[6] = tested on: DENV type 2 Rluc-NGC strain; assay: microbe, parasite or virus in culture; assay type: cell-based; details: Dengue virus, Vero
[7] = tested on: YFV 17D; assay: microbe, parasite or virus in culture; assay type: cell-based; details: Yellow fever virus
[8] = in vitro
[9] = Betacoronavirus 1, OC43, Huh-7, read-out: Average Inhibition (%)

CCN(CC)CCCC(C)Nc1ccnc2cc(Cl)ccc12 (stereo not drawn) [Chloroquine] gave an IC50 ([1]; MRCS cells, data not shown, read-out: IC50) of 2.2 µM.

CCN(CCO)CCCC(C)Nc1ccnc2cc(Cl)ccc12 (stereo not drawn) [Hydroxychloroquine] gave an IC50 [2] of 1.91 µM.

In the case of CCC(CC)COC(=O)[C@H](C)N[P@](=O)(OC[C@H]1O[C@@](C#N)(c2ccc3c(N)ncnn23)[C@H](O)[C@@H]1O)Oc1ccccc1 [Remdesivir], the IC50 [2] is reported as 3.9 µM, the EC50 ([3]; Betacoronavirus 1, OC43, Huh-7) is reported as 0.0414 µM and the inhibition at 0.000457 µM [3, 9] is reported as -4.12%. It also gave an inhibition at 0.001372 µM [3, 9] of -0.1%, an inhibition at 0.004115 µM [3, 9] of 1.54% and an inhibition at 0.01235 µM [3, 9] of 8.25%. The inhibition at 0.03704 µM [3, 9] was 30.4%, the inhibition at 0.11111 µM [3, 9] was 83.4% and the inhibition at 0.33333 µM [3, 9] was 79.5%. It also gave an inhibition at 1 µM [3, 9] of 80.3%, an IC50 ([1]; 72 h) of 0.0231 µM and a viability at 7 days, 0.046 µM [4] of 100%. It also gave a viability at 7 days, 0.137 µM [4] of 102%, a viability at 7 days, 0.412 µM [4] of 104% and a viability at 7 days, 1.235 µM [4] of 102%. It also gave a viability at 7 days, 3.704 µM [4] of 86.9%, a viability at 7 days, 11.11 µM [4] of 56.8% and a viability at 7 days, 33.33 µM [4] of 36.9%. It also gave a viability at 7 days, 100 µM [4] of 21.8% and a CC50 [5] of 17.2 µM.

Compound NC(=O)c1ncn([C@@H]2O[C@H](CO)[C@@H](O)[C@H]2O)n1 [Ribavirin] has an EC50 [6] of 32.2 µM, an inhibition at 0.015 µM [6] of 14.9% and an inhibition at 0.046 µM [6] of 14.9%. It also gave an inhibition at 0.137 µM [6] of 10.8%, an inhibition at 0.412 µM [6] of 13.5% and an inhibition at 1.235 µM [6] of 31.1%. It also gave an inhibition at 3.704 µM [6] of 20.3%, an inhibition at 11.111 µM [6] of 24.3% and an inhibition at 33.333 µM [6] of 60.8%. For the same compound, the inhibition at 100 µM [6] was 98.7%, the inhibition at 300 µM [6] was 100% and the EC50 ([7]; read-out: EC50 for YFV, FIG. 4B as described in Examples 3 & 4) was 225 µM. It also gave an EC50 ([7]; read-out: EC50 for YFV, FIG. 4B legend) of 136 µM and a CC50 [8] greater than 699 µM.
